Measurements published in ChEMBL document CHEMBL4304766, “DMSO-Perturbing Assay for Identifying Promiscuous Enzyme Inhibitors” (ACS Med Chem Lett, 2019).
The source made the active and inactive calls. No cut-off for these calls is given here.

Tests used:
Beta-lactamase [1] = target: T1, Beta-lactamase (Enterobacter cloacae, UniProt P05364); experiment: Inhibition of Enterobacter cloacae beta-lactamase incubated for 10 mins followed by nitrocefin substrate challenge and measured for 5 mins in presence of Triton X-100 by spectrophotometric analysis
T1 sequence (P05364 whole entry): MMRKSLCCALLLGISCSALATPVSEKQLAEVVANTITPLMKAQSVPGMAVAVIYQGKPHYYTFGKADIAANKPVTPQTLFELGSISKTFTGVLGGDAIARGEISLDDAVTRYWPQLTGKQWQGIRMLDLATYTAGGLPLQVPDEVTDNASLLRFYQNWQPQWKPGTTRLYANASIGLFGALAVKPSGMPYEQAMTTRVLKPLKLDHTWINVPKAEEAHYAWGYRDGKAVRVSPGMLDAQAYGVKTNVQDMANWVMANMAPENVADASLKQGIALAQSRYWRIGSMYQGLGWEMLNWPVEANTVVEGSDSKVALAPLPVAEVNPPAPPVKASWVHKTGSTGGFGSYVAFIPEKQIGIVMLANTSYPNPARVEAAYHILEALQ

Chymotrypsinogen A [2] = target: T2, Chymotrypsinogen A (Bos taurus, UniProt P00766); experiment: (§1) Inhibition of alpha-chymotrypsin in bovine pancreas using SPpNA as substrate pretreated with enzyme for 30 mins followed by substrate addition and measured for 12 mins by spectrophotometric analysis
Beta-lactamase [3] = target: T1, Beta-lactamase; experiment: Inhibition of Enterobacter cloacae beta-lactamase incubated for 10 mins followed by nitrocefin substrate challenge and measured for 5 mins by spectrophotometric analysis
[4] = target: Beta-lactamase (Enterobacter cloacae) (UniProt P05364); experiment: Inhibition of Enterobacter cloacae beta-lactamase at 200 uM incubated for 10 mins followed by nitrocefin substrate challenge and measured for 5 mins in presence of 1 mM DTT by spectrophotometric analysis relative to control
Sequence of Beta-lactamase (Enterobacter cloacae) (P05364 21-381 limits assumed): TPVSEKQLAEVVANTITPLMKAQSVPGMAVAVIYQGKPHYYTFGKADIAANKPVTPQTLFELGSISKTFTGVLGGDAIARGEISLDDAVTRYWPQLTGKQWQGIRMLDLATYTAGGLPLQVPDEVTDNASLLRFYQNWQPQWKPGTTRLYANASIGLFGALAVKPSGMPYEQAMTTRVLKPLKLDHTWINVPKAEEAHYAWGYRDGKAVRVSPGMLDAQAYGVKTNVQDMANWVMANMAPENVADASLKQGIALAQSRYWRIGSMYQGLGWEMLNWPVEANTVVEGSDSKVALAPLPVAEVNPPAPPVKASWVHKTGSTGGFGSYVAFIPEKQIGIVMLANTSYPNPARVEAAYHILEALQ

[5] = Drug metabolism in DMSO-d6/potassium phosphate buffer assessed as drug recovery with small amount of metabolite formation by 1H-NMR analysis
[6] = target: Chymotrypsinogen A (Bos taurus) (UniProt P00766); experiment: Inhibition of bovine pancreas alpha-chymotrypsin at concentration of 6 uM using SPpNA as substrate treated with enzyme for 30 mins following enzyme incubation with 0.7 to 2.1 M DMSO for 5 mins followed by substrate addition and measured for 12 mins by DMSO-perturbation assay
[7] = target: Chymotrypsinogen A (Bos taurus) (UniProt P00766); experiment: as §1
Bacillus cereus [8] = experiment: Inhibition of Bacillus cereus 569/H9 beta-lactamase incubated for 10 mins followed by nitrocefin substrate challenge and measured for 5 mins by spectrophotometric analysis
Chymotrypsinogen A [9] = target: T2, Chymotrypsinogen A; experiment: Inhibition of alpha-chymotrypsin in bovine pancreas using SPpNA as substrate pretreated with enzyme for 30 mins followed by substrate addition and measured for 12 mins in presence of Triton X-100 by spectrophotometric analysis
[10] = target: Beta-lactamase (Enterobacter cloacae) (UniProt P05364); experiment: Inhibition of Enterobacter cloacae beta-lactamase at 500 uM incubated for 10 mins followed by nitrocefin substrate challenge and measured for 5 mins by spectrophotometric analysis relative to control
[11] = target: Beta-lactamase (Enterobacter cloacae) (UniProt P05364); experiment: (§2) Inhibition of Enterobacter cloacae beta-lactamase incubated for 10 mins followed by nitrocefin substrate challenge and measured for 5 mins in presence of 1 mM DTT by spectrophotometric analysis
[12] = target: Chymotrypsinogen A (Bos taurus) (UniProt P00766); experiment: Inhibition of alpha-chymotrypsin in bovine pancreas at 300 uM using SPpNA as substrate pretreated with enzyme for 30 mins followed by substrate addition and measured for 12 mins by spectrophotometric analysis relative to control
Bacillus cereus [13] = experiment: Inhibition of Bacillus cereus 569/H9 beta-lactamase treated with enzyme for 10 mins following enzyme incubation with 0.7 to 2.1 M DMSO for 5 mins followed by nitrocefin substrate challenge and measured for 5 mins by DMSO-perturbation assay
Beta-lactamase [14] = target: T1, Beta-lactamase; experiment: as §2
[15] = target: Chymotrypsinogen A (Bos taurus) (UniProt P00766); experiment: Inhibition of bovine pancreas alpha-chymotrypsin at concentration of 6 nM using SAAPPpNA as substrate treated with enzyme for 30 mins following enzyme incubation with 0.7 to 2.1 M DMSO for 5 mins followed by substrate addition and measured for 12 mins by DMSO-perturbation assay

CC(=O)c1c(O)c(C)c(O)c(Cc2c(O)c3c(c(C(=O)/C=C/c4ccccc4)c2O)OC(C)(C)C=C3)c1O [ROTTLERIN]
IC50 (Beta-lactamase [1]): 142 µM | IC50 (Chymotrypsinogen A [2]): Nd(Insoluble) | IC50 (Beta-lactamase [3]; read-out: IC50): 96 µM | inhibition [4]: < 50% | Drug metabolism [5]: Metabolite detected

CC(C)C[C@@H](N)C(=O)N[C@@H](Cc1ccccc1)C(=O)NCc1ccc(F)cc1
inhibition [6]: Active

CCCCCCCCCCCCCCCC(=O)OC[C@H](O)[C@H]1OC(=O)C(O)=C1O
inhibition [7]: inactive | inhibition (Bacillus cereus [8]): inactive

O=c1cc(-c2ccc(O)c(O)c2)oc2ccccc12
IC50 (Chymotrypsinogen A [2]; read-out: IC50): 226 µM | IC50 (Beta-lactamase [3]): Nd(Insoluble) | IC50 (Chymotrypsinogen A [9]): 270 µM

C[C@@H]1O[C@@H](OC[C@H]2O[C@@H](Oc3c(-c4ccc(O)c(O)c4)oc4cc(O)cc(O)c4c3=O)[C@H](O)[C@@H](O)[C@@H]2O)[C@H](O)[C@H](O)[C@H]1O [RUTIN]
IC50 (Chymotrypsinogen A [2]; read-out: IC50): 296 µM | IC50 (Beta-lactamase [3]; read-out: IC50): > 500 µM | inhibition [10]: 15% | IC50 (Chymotrypsinogen A [9]): 281 µM | inhibition [6]: Active

CC1(C)[C@@H](O[C@H]2O[C@H](C(=O)O)[C@@H](O)[C@H](O)[C@H]2O[C@@H]2O[C@H](C(=O)O)[C@@H](O)[C@H](O)[C@H]2O)CC[C@]2(C)[C@H]3C(=O)C=C4[C@@H]5C[C@@](C)(C(=O)O)CC[C@]5(C)CC[C@@]4(C)[C@]3(C)CC[C@@H]12
inhibition (Bacillus cereus [8]): inactive

O=C(CCc1ccc(O)cc1)c1c(O)cc(O)cc1O [PHLORETIN]
inhibition [11]: Active | IC50 (Chymotrypsinogen A [2]; read-out: IC50): > 300 µM | IC50 (Beta-lactamase [3]; read-out: IC50): 496 µM | inhibition [12]: 9.9%

O=C(O)c1cc(=O)c2c(OCC(O)COc3cccc4oc(C(=O)O)cc(=O)c34)cccc2o1
inhibition [7]: inactive | inhibition (Bacillus cereus [8]): inactive

O=C(O)[C@H]1/C(=C/CO)O[C@@H]2CC(=O)N21
inhibition (Bacillus cereus [13]): Active

CC1(C)S[C@@H]2[C@H](NC(=O)Cc3ccccc3)C(=O)N2[C@H]1C(=O)O [PENICILLIN G SODIUM]
IC50 (Beta-lactamase [1]): 3.6 µM | IC50 (Beta-lactamase [3]; read-out: IC50): 7.2 µM

O=C(O)[C@H]1O[C@@H](Oc2cc3oc(-c4ccccc4)cc(=O)c3c(O)c2O)[C@H](O)[C@@H](O)[C@@H]1O
inhibition (Bacillus cereus [8]): inactive

O=c1c(O)c(-c2ccc(O)c(O)c2)oc2cc(O)cc(O)c12 [QUERCETIN]
IC50 (Beta-lactamase [14]): 224 µM | inhibition [15]: Active | IC50 (Beta-lactamase [1]): > 500 µM | IC50 (Beta-lactamase [3]; read-out: IC50): 85 µM | Drug metabolism [5]: Metabolite detected | inhibition [6]: Active

Oc1cc(O)c2c(c1)O[C@H](c1ccc(O)c(O)c1)[C@H](O)C2
inhibition (Bacillus cereus [8]): inactive

O=C(O[C@@H]1Cc2c(O)cc(O)cc2O[C@@H]1c1cc(O)c(O)c(O)c1)c1cc(O)c(O)c(O)c1
inhibition (Bacillus cereus [8]): inactive

COc1ccc2c(c1)c(CC(=O)O)c(C)n2C(=O)c1ccc(Cl)cc1
inhibition [7]: inactive | inhibition (Bacillus cereus [8]): inactive
